Entries after “also recorded” stand apart in the source; their conditions may differ.
Assays:
[1] = target: T1, TRAF6-UBC13 interaction (Homo sapiens, UniProt Q9Y4K3); test: ALPHAScreen TRAF6WTStrepII-Ubc13FH interaction assay; assay type: binding; conditions: serial dilution
T1 construct: RING-Zincfinger1 (RZ1) domain (residues 50-159) of TRAF6 wildtype; made in house; host or cells: E. coli BL21 codon plus RIPL
T1 sequence (Q9Y4K3 50-159): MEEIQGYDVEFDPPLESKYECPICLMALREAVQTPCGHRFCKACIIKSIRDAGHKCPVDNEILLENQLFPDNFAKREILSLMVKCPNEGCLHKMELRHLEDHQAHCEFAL
From the text: In order to identify small molecules that specifically target the RZ1 domain of TRAF6 and thereby prevent its binding to Ubc13, the ALPHAScreen technology (PerkinElmer) was chosen to detect TRAF6WTStrepII-Ubc13FH interaction in High-Throughput-Screenings as well as Structure Activity Relationship (SAR) analysis.
For performance of an automated ALPHAScreen assay, all following components were pre-diluted in ALPHAScreen buffer (1×PBS, 0.5% BSA, 0.01% Tween-20). First, the TRAF6 protein (end concentration 100 nM, 30 μL volume) was added to 384-well-opti-plates involving the MultiFlo dispensing system (BioTek) followed by transfer of the compounds via the Sciclone G3 transfer station (PerkinElmer). After addition of Ubc13FH (end concentration 75 nM, 10 μL volume) with the MultiFlo system and incubation for one hour at room temperature, both beads (Strep-Tactin Alpha Donor beads and Nickel-Chelate acceptor beads; end concentrations 4 μg each, 10 μL volume each) were mixed and added using the MultiFlo system in subdued light. Read-out of the plates occurred after another hour of incubation at room temperature. Statistical parameters including the coefficient of variation, Z′ factor and signal window were calculated to determine the quality of the HTS campaign. To evaluate the efficacy of the compounds, ALPHAScreen units of compound-treated samples were referred to DMSO control treated samples. Thereby, the TRAF6D57K mutant served as the control for minimum signal and was included on every plate of the screening. Compounds that inhibited TRAF6WTStrepII-Ubc13FH by more than 25% were considered as actives. After elimination of ALPHAScreen frequent hitter compounds and His-tag frequent hitters (Schorpp, K., I. Rothenaigner, E. Salmina, et al., Identification of Small-Molecule Frequent Hitters from AlphaScreen High-Throughput Screens. J Biomol Screen, 2014. 19(5): p. 715-26), 178 compounds were defined as primary hits and were subsequently tested in five-point serial dilution assays (2.5-40 μM) in TRAF6WTStrepII-Ubc13FH ALPHAScreen experiments. Only compounds with dose-dependent effects on TRAF6WTStrepII-Ubc13FH (n=27) were taken for further research. For analog testing, all compounds were analyzed in ten-point titration (0.2-100 μM) in TRAF6WTStrepII-Ubc13FH ALPHAScreen experiments. In parallel, the compounds were tested in the ALPHAScreen TruHits Kit (PerkinElmer) to rule out unspecific interference with the ALPHAScreen technology.

[2] = target: T2, TRAF6-Ubc13 binding (Homo sapiens, UniProt Q9Y4K3); test: Co-immunoprecipitation of HA-TRAF6 and endogenous Ubc13 in HEK 293T cells; assay type: cell-based; conditions: listed as HZM06-4
T2 construct: RING-Zincfinger1 (RZ1) domain (residues 50-159) of TRAF6 wildtype; expressed in transfected cells; host or cells: HEK 293T
T2 sequence (Q9Y4K3 50-159): T1 sequence (Q9Y4K3 50-159)
Method: To study the interaction of TRAF6 and Ubc13 in cells, 1×10^6 293T cells were seeded and after 18 hours cells were transfected with lpg pEF-HA empty or pEF-HA-TRAF6 RZ1 plasmid using the X-tremeGENE HP DNA transfection reagent (Roche). 6 hours upon transfection, cells were treated with compound or DMSO. After 42 hours further incubation, cells were harvested in Co-IP lysis buffer and HA-TRAF6 was immunoprecipitated with anti-HA affinity matrix (Roche). Binding of Ubc13 to TRAF6 was examined in Western Blot analysis.

inhibitory activity in ALPHAScreen [1]: most prominent effect
Structure (SMILES): Cc1nn(-c2ccc3nnc(C)n3n2)c(C)c1CCC(=O)N1CCC(Cc2ccccc2)C1 (centres unmarked) [Compound 31, 1-(3-benzylpyrrolidin-1-yl)-3-(3,5-dimethyl-1-(3-methyl-[1,2,4]triazolo[4,3-b]pyridazin-6-yl)-1H-pyrazol-4-yl)propan-1-one]
interaction of endogenous Ubc13 with ectopically expressed HA-TRAF6 [2]: active in cells; also recorded: most active analogs

— patent US11001591B2, “TRAF 6 inhibitors” (HELMHOLTZ ZENTRUM MUENCHEN—DEUTSCHES FORSCHUNGSZENTRUM FÜR …, priority 2016, dated 2021)
